From paper PMC9501377, “New Diarylamine KV10.1 Inhibitors and Their Anticancer Potential” (Pharmaceutics, 2022)
Several values for one entry are separate records, joined by “and”; a condition that tells them apart may be missing. Identical values can stand only once.

Columns and labels:
Format in all cases: cell-based
[1] = biological target: T1, hERG (Homo sapiens, UniProt Q12809); assay: Two-electrode voltage-clamp on Xenopus laevis oocytes expressing hERG; parameters: expressed in transfected cells; host or cells: Xenopus laevis oocytes (cRNA injection); conditions: voltage-clamped; for inhibition at 10 µM: human, Xenopus laevis oocytes expressing hERG, pH 7.5, 10 μM
From the text: (§1) Stage V–VI oocytes were isolated by partial ovariectomy from Xenopus laevis frogs (African clawed frog). Mature female frogs were purchased from CRB Xénopes (Rennes, France) and were housed in the Aquatic Facility (KU Leuven) in compliance with the regulations of the European Union (EU) concerning the welfare of laboratory animals as declared in Directive 2010/63/EU. The use of Xenopus laevis was approved by the Animal Ethics Committee of the KU Leuven (Project nr. P186/2019). After anesthetising the frogs by a 15 min submersion in 0.1% tricaine methanesulphonate (pH 7.0), the oocytes were collected. The isolated oocytes were then washed with a 1.5 mg/mL collagenase solution for 2 h to remove the follicle layer.
(§2) Ion channels (KV10.1 and hERG) were expressed in Xenopus laevis oocytes, by linearisation of the plasmids and subsequent in vitro transcription using a commercial T7 or SP6 mMESSAGE mMACHINE transcription kit (Ambion, Carlsbad, CA, USA). Defolliculated Xenopus oocytes were then injected with 20–50 nL of the cRNA at a concentration of 1 ng/nL using a micro-injector (Drummond Scientific1, Broomall, PA, USA). The oocytes were incubated in a solution containing (in mM): NaCl, 96; KCl, 2; CaCl2, 1.8; MgCl2, 2 and HEPES, 5 (pH 7.4), supplemented with 50 mg/L gentamycin sulphate and […]. After ex vivo translation, the ion channels are correctly inserted in the cell membrane of the oocytes.
(§3) Two-electrode voltage-clamp recordings were performed at room temperature (18–22 °C) using a Geneclamp 500 amplifier (Molecular Devices, San Jose, CA, USA) controlled by a pClamp data acquisition system (Axon Instruments1, Union City, CA, USA) and using an integrated digital TEVC amplifier controlled by HiClamp, an automated Voltage-Clamp Screening System (Multi Channel Systems MCS GmbH, Reutlingen, Germany). Whole-cell currents from oocytes were recorded 1–7 days after injection. The bath solution composition was ND96 (in mM): NaCl, 96; KCl, 2; CaCl2, 1.8; MgCl2, 2 and HEPES, 5 (pH 7.5). Voltage and current electrodes were filled with a 3 M solution of KCl in H2O. Resistances of both electrodes were kept between 0.5 and 1.5 MΩ. The elicited Kv10.1 and hERG currents were filtered at 0.5 kHz and sampled at 2 kHz using a four-pole low-pass Bessel filter. Leak subtraction was performed using a p/4 protocol. Starting from a holding potential of −90 mV, currents for Kv10.1 were evoked by 1 s depolarizing pulses to 0 mV and currents for hERG were evoked by 2.5 s depolarizing prepulses to +40 mV, followed by hyperpolarizing pulses to −120 mV for 2.5 s. The concentration dependency of all compounds was assessed by measuring the current inhibition in the presence of increasing compound concentrations. To this end, a stock solution of the compounds was prepared in 100% DMSO for the sake of solubility. From this stock solution, adequate dilutions with a maximum of 0.5% DMSO were made for testing. The data of the concentration–response curves were fitted with the Hill equation: y = 100/{1 + (IC50/[compound])^h}, where y is the amplitude of the compound- induced effect, IC50 is the compound concentration at half-maximal efficacy, (compound) is the compound concentration, and h is the Hill coefficient.
(§4) All electrophysiological data are presented as means ± SEM of n ≥ 3 independent experiments unless otherwise indicated. Oocyte data were analysed using pClamp Clampfit 10.4 (Molecular Devices, Downingtown, PA, USA) and OriginPro 9 (Originlab, Northampton, MA, USA) or GraphPad Prism 8 software (GraphPad Software, Inc., San Diego, CA, USA). Patch-clamp data analysis was performed using FitMaster (HEKA Electronics), IgorPro (Wavemetrics, Inc., Lake Oswego, OR, USA) and GraphPad Prism 9 (GraphPad Software, Inc., San Diego, CA, USA). The Dunnett test and one-way ANOVA were performed to calculate the significance of the induced inhibition compared to the control (p < 0.05).

[2] = biological target: T2, KV10.1 (Homo sapiens, UniProt O95259); assay: Two-electrode voltage-clamp on Xenopus laevis oocytes expressing KV10.1; conditions: voltage-clamped
T2 construct: expressed in transfected cells; host or cells: Xenopus laevis oocytes (cRNA injection)
T2 sequence (O95259 1-989): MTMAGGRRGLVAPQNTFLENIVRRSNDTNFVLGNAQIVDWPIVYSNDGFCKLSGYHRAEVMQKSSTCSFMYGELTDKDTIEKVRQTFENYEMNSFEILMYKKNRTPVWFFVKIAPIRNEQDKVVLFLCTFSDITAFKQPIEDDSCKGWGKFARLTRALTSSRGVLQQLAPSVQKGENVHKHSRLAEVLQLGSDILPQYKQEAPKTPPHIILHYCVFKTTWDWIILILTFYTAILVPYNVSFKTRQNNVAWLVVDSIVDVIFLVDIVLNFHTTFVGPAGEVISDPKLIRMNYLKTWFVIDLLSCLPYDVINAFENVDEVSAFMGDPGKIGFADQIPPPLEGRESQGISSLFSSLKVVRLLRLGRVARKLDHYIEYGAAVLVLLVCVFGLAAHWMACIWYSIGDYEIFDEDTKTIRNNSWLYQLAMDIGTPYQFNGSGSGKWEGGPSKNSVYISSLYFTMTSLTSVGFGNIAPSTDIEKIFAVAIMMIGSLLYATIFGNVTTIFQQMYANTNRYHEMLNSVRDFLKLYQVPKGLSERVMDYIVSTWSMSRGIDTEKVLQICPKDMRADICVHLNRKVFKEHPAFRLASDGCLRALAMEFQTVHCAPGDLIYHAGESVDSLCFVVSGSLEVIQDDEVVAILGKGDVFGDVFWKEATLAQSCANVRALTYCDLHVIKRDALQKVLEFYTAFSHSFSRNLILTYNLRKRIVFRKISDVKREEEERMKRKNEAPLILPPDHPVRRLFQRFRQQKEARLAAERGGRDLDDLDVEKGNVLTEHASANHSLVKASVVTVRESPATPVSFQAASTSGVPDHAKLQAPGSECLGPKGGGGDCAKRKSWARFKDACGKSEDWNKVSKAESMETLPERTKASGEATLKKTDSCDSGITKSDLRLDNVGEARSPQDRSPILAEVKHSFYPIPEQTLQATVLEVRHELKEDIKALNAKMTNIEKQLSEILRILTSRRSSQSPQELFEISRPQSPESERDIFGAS
From the text: as §1, §2, §3, §4

[3] = biological target: T1, hERG; assay: Whole-cell patch-clamp, hERG inhibition; parameters: expressed in transfected cells; conditions: dose–response fit

T1 sequence (Q12809 whole entry): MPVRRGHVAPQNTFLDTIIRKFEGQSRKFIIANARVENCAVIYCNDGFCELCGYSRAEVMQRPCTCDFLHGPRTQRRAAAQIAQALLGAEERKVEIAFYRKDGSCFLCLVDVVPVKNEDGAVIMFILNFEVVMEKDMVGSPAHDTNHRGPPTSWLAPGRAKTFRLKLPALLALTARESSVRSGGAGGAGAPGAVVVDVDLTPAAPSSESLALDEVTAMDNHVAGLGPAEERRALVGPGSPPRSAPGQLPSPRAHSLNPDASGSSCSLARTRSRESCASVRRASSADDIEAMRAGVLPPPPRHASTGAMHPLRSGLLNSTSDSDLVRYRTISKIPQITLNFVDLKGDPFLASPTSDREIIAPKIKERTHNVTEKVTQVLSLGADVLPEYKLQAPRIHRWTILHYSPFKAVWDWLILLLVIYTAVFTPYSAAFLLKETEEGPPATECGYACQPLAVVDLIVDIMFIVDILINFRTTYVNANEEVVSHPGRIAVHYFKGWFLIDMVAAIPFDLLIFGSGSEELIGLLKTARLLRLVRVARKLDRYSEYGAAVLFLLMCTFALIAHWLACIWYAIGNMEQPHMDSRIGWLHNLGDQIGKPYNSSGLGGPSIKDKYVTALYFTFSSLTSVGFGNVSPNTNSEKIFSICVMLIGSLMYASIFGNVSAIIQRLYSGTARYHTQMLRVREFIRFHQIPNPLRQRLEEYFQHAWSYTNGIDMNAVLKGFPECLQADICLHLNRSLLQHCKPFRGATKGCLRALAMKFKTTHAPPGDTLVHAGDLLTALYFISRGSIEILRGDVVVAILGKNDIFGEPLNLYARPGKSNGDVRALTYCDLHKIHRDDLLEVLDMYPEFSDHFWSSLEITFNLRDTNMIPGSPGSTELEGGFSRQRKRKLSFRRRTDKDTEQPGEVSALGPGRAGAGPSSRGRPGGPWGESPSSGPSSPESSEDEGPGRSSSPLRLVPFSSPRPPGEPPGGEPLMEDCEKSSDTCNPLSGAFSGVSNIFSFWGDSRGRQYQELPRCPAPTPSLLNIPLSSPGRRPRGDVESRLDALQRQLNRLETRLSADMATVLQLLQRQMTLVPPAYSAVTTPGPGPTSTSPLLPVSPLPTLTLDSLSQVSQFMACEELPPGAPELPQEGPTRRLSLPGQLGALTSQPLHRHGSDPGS

inhibition at 10 µM [2] [%] | IC50 [2] | SMILES | inhibition at 10 µM [1] [%] | IC50 [1] | IC50 [3] [nM]
41.7 | 11600 ± 350 nM | CN(C)CCOc1ccc(Nc2ccc(C(F)(F)F)cc2[N+](=O)[O-])cc1 [Compound 18a, N-(4-(2-(Dimethylamino)ethoxy)phenyl)-2-nitro-4-(trifluoromethyl)aniline] | 65.2 | 7560 ± 410 nM | 177
26 |  | CN(C)CCOc1c(Br)cc(Nc2ccc(C(F)(F)F)cc2[N+](=O)[O-])cc1Br [Compound 18b, 3,5-Dibromo-4-(2-(dimethylamino)ethoxy)-N-(2-nitro-4-(trifluoromethyl)phenyl)aniline] | 66.8 |  | 4.9
-1.18 |  | O=[N+]([O-])c1cc(C(F)(F)F)ccc1Nc1ccc(OCc2ccccc2)cc1 [Compound 14, N-(4-(Benzyloxy)phenyl)-2-nitro-4-(trifluoromethyl)aniline] | 4.23 |  | 
43.4 | 13300 ± 1890 nM | O=[N+]([O-])c1cc(C(F)(F)F)ccc1Nc1ccc(OCCN2CCCCCC2)cc1 [Compound 21, N-(4-(2-(Azepan-1-yl)ethoxy)phenyl)-2-nitro-4-(trifluoromethyl)aniline] | 77.5 ± 5.71 | 1340 ± 320 nM | 
63.5 | 3580 nM and 3600 nM | CCN(CC)CCOc1ccc(Nc2ccc(C(F)(F)F)cc2[N+](=O)[O-])cc1 [Compound 17a, N-(4-(2-(Diethylamino)ethoxy)phenyl)-2-nitro-4-(trifluoromethyl)aniline] | 64.5 | 2010 nM and 2000 nM | 232
